# US6376666B1 (Nauchno-Issledovatelsky Institut Farmakologii Rossiiskoi …, priority 1994, dated 2002)
# Values joined by “and” are separate entries in the source; they are usually repeats but may differ in a detail not shown here. Identical values can stand only once. “Also recorded” adds a separate entry of the source. Marks after values point to notes of the source that are not given here.
# Columns and labels:
# in vivo = conditions: rat, iv
# [1] = system: ventricular disturbances of heart rhythm; assay: arrhythmia in concious dogs according to Harris; assay type: in vivo; conditions: for antiarrhythmic effect, in words: concious dogs with ventricular disturbances of heart rhythm; for antiarrhythmic effect, in words / effect on heart rate, in words / tolerability / side effects, in words: i.v.; for % ectopic contractions, change vs basal level / Heart rate, change vs basal level / effect on heart rate, in words / tolerability / side effects, in words: concious dogs; for % ectopic contractions, change vs basal level / Heart rate, change vs basal level: 2 mg/kg i.v.; for % of the ectopic contractions / heart rate: concious dogs according to Harris, compound XX 1.0 mg/kg i.v., individual dogs
# Procedure: The arrhythmia in concious dogs according to Harris. The experiments were conducted in mongrel dogs of either sex weighing 9-14 kg. Under anesthesia (40 mg/kg of nembutal i.v.) and artificial respiration the two-step occlusion of the left anterior descending coronary artery was performed. The constant ECG disturbances of the heart rhythm were recorded after 24 hours. […] T-Student' test was used for statistical calculation.
# [2] = system: ventricular fibrillations; assay: ventricular fibrillation, 7-min occlusion and reperfusion of coronary artery in anesthetized rats; assay type: in vivo; conditions: for Number of VF (ventricular fibrillations) / Number of LHA (lethality hazardous arrhythmia) / Total numbers of arrhyt. / Severity of arrhythmias: anesthetized rats; for Number of VF (ventricular fibrillations): control 15 of 24; for Number of LHA (lethality hazardous arrhythmia): control 22 of 24; for Total numbers of arrhyt.: control 24 of 24; for Severity of arrhythmias: control 66
# Procedure: The experiments were conducted in male rats weighing 180-240 g and anesthetized with nembutal (60 mg/kg i.v.) with open chest and artificial respiration. The occlusion of the left coronary artery was performed 1-2 min after experiment beginning with following reperfusion after 7 min. During this period time according to literature data [Krzeminski T., Grzyb J., Kurcok A., Brus R.: Pol.J.Pharmacol., 1992, 44, Suppl., p.169-170] the maximum number of ventricular fibrillations (70-100%) were registered. The ECG in the 2nd standard lead was recorded in “Mingograph-81”. The number of ventricular fibrillations during occlusion and reperfusion periods, the life menacing arrhythmia (fibrillation+paroxysmal ventricular tachycardia) and total number of arrhythmias were calculated. The known antiarrhythmic drug bonnecor was used as the reference agent [Grigorieva E. K., Gorbunova V. V. in: “New antiarrhythmic drug—bonnecor (the pharmacology and clinical usage)”, M., 1993, p.64-67]. The compounds were injected i.v. at the following doses: bonnecor—1,0 mg/kg, compound IX—2,0 mg/kg, compound XX—1,0 mg/kg. The control animals were administered with the equivalent volume of physiological solution (1,0 ml/kg). 4 series of experiments were carried out in 80 rats. The results were assessed according to the method of point scale: the absence of arrhythmia—0 point, extrasystole—1 point, paroxysmal ventricular tachycardia—2 points, ventricular fibrillation—3 points, fibrillation observed during the occlusion of coronary vessel—4 points. For statistical analysis the Fisher's exact probability and Wilconson's methods were used.
# [Krzeminski T., Grzyb J., Kurcok A., Brus R.: Pol.J.Pharmacol., 1992, 44, Suppl., p.169-170] have shown that 7 min occlusion with following reperfusion of coronary artery in anesthetized rats produced the ventricular fibrillation (68-100%). Defibrotide and prostacycline decreased the number of fibrillations. We have studied the antifibrillator activity of some derivatives of 2-mercaptbenzimidazole in this model with disturbances of heart rhythm. Bonnecor (1,0 mg/kg) was used as the reference drug. It is well known that this agent produces apronouncedantifibrillatoryactivity [Grigorieva E. K., Gorbunova V. V. in: “New antiarrhythmic drug-bonnecor (the pharmacology and clinical usage)”, M., 1993, p.64-67].
# adrenaline arrhythmia = adrenaline arrhythmia in concious rabbits; conditions: given 2 min before arrhythmogenic dose of adrenaline
# Procedure: Adrenaline arrhythmia. The 0,1% solution of adrenaline hydrochloride was injected to the marginal ear's vein of rabbit weighing 2,5-3,0 kg at dose ranging 120-150 mcg/kg which induced cardiac rhythm disturbances of two types.
# The tested compound was injected in 3 ml of distilled water 30 min after determination of arrhythmogenic dose of adrenaline and the ECG was recorded in 2nd standard lead. 2 min after administration of tested compound the arrhythmogenic dose of adrenaline was injected.
# [3] = system: calcium chloride arrhythmia; assay: calcium chloride arrhythmia in concious rats; assay type: in vivo; conditions: for ED50: Rattus norvegicus, iv, read-out: Calcium chloride arrhythmia ED50 (mean effective dose); for effect on death from lethal ventricular fibrillation, in words: injected 2 min prior calcium chloride
# Procedure: In these experiments the outbred concious rats 180-200 g of weight were injected with 10% solution of calcium chloride in tail vein at dose range of 250-300 mg/kg.
# male outbred mice = assay: potentiation of sleep induced by sodium thiopental; assay type: in vivo
# Procedure: The possible hypnotic effects of choosen drugs was estimated according to method of potentiation of sleep induced by sodium thiopental. The male outbred mice weighing 20-25 g were injected i.p. with sodium thiopental at dose of 70 mg/kg. Two parameters were estimated: latent time of sleeping and duration of sleep. The used compounds were administered i.p. 30 min prior injection of sodium thiopental.
# outbred male rats = assay: conflict Vogel test (punished licking of water); assay type: in vivo; conditions: M ± mx
# Procedure: The study of anxiolytic activity of chosen compounds was carried out in the experiments with outbred male rats weighing 180-200 g in standard conflict Vogel' procedure [Voronina T. A. et al., in: “Phenazepam”, Naukova Dumka, Kiev, 1982, p.89, 93, 146]. The main aim of the initial step of experiments was the training of rats to develop the feeling of thirst with following experience of water licking from bottle in the experimental chamber. The animals were deprived of water for 24 hours and were placed in the test chamber for 5-min adaptation period during which they had free access to the drinking bottle. After another 24 h deprivation period the rats were placed again in the test chamber and were allowed to drink water for 5 sec. Immediately afterwards drinking attempts were punished by electric shock (0,5 mA). Under this collision of drinking and protective reflexes the extremal situation was developed. In this situation the anxiety of punishment prevented the licking process. The number of shocks received throughout a 5-min experimental session was recorded.
# [4] = concious rats, given 2 min prior calcium chloride 250-300 mg/kg i.v.
# [5] = 10 min after compound injection
# [6] = 15 min after compound injection
# [7] = 20 min after compound injection
# [8] = 30 min after compound injection
# [9] = 40 min after compound injection
# [10] = 50 min after compound injection
# [11] = 0.01 mg/kg i.p. 30 min before thiopental 70 mg/kg i.p.
# [12] = 0.1 mg/kg i.p. 30 min before thiopental 70 mg/kg i.p.
# [13] = 1.0 mg/kg i.p. 30 min before thiopental 70 mg/kg i.p.
# [14] = 5.0 mg/kg i.p. 30 min before thiopental 70 mg/kg i.p.
# [15] = 10.0 mg/kg i.p. 30 min before thiopental 70 mg/kg i.p.
structure (smiles),measurement,setting,value
"CCOc1ccc2nc(SCCN(CC)CC)[nH]c2c1 [Compound IX, 2-[2-(Diethylamino)ethylthio]-5-ethoxybenz-imidazole]",LD50,in vivo,31.5 mg/kg
same,"antiarrhythmic effect, in words",[1],pronounced antiarrhythmic effect
same,"% ectopic contractions, change vs basal level",[1]; after 3 min,−44.8 ± 15.0 %
same,"Heart rate, change vs basal level",[1]; after 3 min,+3.2 ± 8.4 beats/min
same,"% ectopic contractions, change vs basal level",[1]; after 5 min,−43.8 ± 13.3 %
same,"Heart rate, change vs basal level",[1]; after 5 min,−5.2 ± 9.2 beats/min
same,"% ectopic contractions, change vs basal level",[1]; after 10 min,−59.4 ± 7.8 %
same,"Heart rate, change vs basal level",[1]; after 10 min,−14.6 ± 12.0 beats/min
same,"% ectopic contractions, change vs basal level",[1]; after 20 min,−41.4 ± 8.1 %
same,"Heart rate, change vs basal level",[1]; after 20 min,−16.4 ± 6.6 & beats/min
same,"% ectopic contractions, change vs basal level",[1]; after 30 min,−24.8 ± 5.8 %
same,"Heart rate, change vs basal level",[1]; after 30 min,−5.6 ± 2.1 & beats/min
same,"% ectopic contractions, change vs basal level",[1]; after 60 min,−17.2 ± 9.1%
same,"Heart rate, change vs basal level",[1]; after 60 min,−5.2 ± 4.1 & beats/min
same,duration of antiarrhythmic effect,"[1]; concious dogs, 2,0 mg/kg i.v.",50 min
same,"effect on heart rate, in words",[1],gradual bradycardia
same,"tolerability / side effects, in words",[1],no side effects
same,"antifibrillatory effect, in words","[2]; anesthetized rats i.v., bonnecor 1,0, IX 2,0, X (printed) 1,0 mg/kg",reduced the number of both the ventricular fibrillations and lethality hazardous arrhythmia
same,Number of VF (ventricular fibrillations),"[2]; 2 mg/kg i.v., 20 animals",4*
same,Number of LHA (lethality hazardous arrhythmia),"[2]; 2 mg/kg i.v., 20 animals",12*
same,Total numbers of arrhyt.,"[2]; 2 mg/kg i.v., 20 animals",17^
same,Severity of arrhythmias,"[2]; 2 mg/kg i.v., 20 animals",32** points
same,Adrenaline arrhythmia. Range of active doses,adrenaline arrhythmia,0.3 to 0.7 mg/kg
same,ED50,[3]; [4],1 mg/kg
same,"effect on death from lethal ventricular fibrillation, in words",[3]; concious rats,prevents the death of animals
same,"activity relative to lidocaine, calcium chloride arrhythmia","[3]; rats, higher than lidocaine","7,5 folds"
same,"activity relative to novocainamide, calcium chloride arrhythmia","[3]; rats, higher than novocainamide",50 folds
"CN(C)CCSc1nc2ccccc2n1CCc1ccccc1 [Compound XX, 1-(β-Phenylethyl)-2-[2-(dimethylamino)ethylthio]-benzimidazole]",% of the ectopic contractions,[1]; 3 min after compound injection,64% and 30% and 72% and 80%
same,heart rate,[1]; 3 min after compound injection,93 beats/min and 172 beats/min and 145 beats/min and 103 beats/min
same,% of the ectopic contractions,[1]; 5 min after compound injection,52% and 20% and 63% and 82%
same,heart rate,[1]; 5 min after compound injection,89 beats/min and 167 beats/min and 138 beats/min and 98 beats/min
same,% of the ectopic contractions,[1]; [5],50% and 18% and 60% and 81%
same,heart rate,[1]; [5],102 beats/min and 163 beats/min and 129 beats/min and 75 beats/min
same,% of the ectopic contractions,[1]; [6],51% and 0% and 58% and 91%
same,heart rate,[1]; [6],88 beats/min and 159 beats/min and 125 beats/min and 100 beats/min
same,% of the ectopic contractions,[1]; [7],56% and 0% and 66% and 92%
same,heart rate,[1]; [7],74 beats/min and 155 beats/min and 132 beats/min and 78 beats/min
same,% of the ectopic contractions,[1]; [8],62% and 10% and 74% and 91%
same,heart rate,[1]; [8],94 beats/min and 168 beats/min and 135 beats/min and 117 beats/min
same,% of the ectopic contractions,[1]; [9],66% and 8% and 79% and 97%
same,heart rate,[1]; [9],105 beats/min and 185 beats/min and 148 beats/min and 106 beats/min
same,% of the ectopic contractions,[1]; [10],63% and 10% and 81% and 94%
same,heart rate,[1]; [10],128 beats/min and 198 beats/min and 159 beats/min and 109 beats/min
same,"antiarrhythmic effect, in words",[1],pronounced antiarrhythmic effect
same,"effect on heart rate, in words",[1],pronounced bradycardia
same,"tolerability / side effects, in words",[1],well tolerated by the animals; also recorded: no side effects
same,Number of VF (ventricular fibrillations),"[2]; 1 mg/kg i.v., 18 animals",7^
same,Number of LHA (lethality hazardous arrhythmia),"[2]; 1 mg/kg i.v., 18 animals",11*
same,Total numbers of arrhyt.,"[2]; 1 mg/kg i.v., 18 animals",13**
same,Severity of arrhythmias,"[2]; 1 mg/kg i.v., 18 animals",34* points
same,Adrenaline arrhythmia. Range of active doses,adrenaline arrhythmia,0.2−0.7 mg/kg
same,ED50,[3]; [4],2.03 mg/kg
same,Calcium chloride arrhythmia ED50 (mean effective dose),[3]; [4],2.0 mg/kg
same,"effect on death from lethal ventricular fibrillation, in words",[3]; concious rats,prevents the death of animals
"CCOc1ccc2nc(SCCN3CCOCC3)[nH]c2c1 [XII, 2-[2-(Morpholino)ethylthio]-5-ethoxybenzimidazole]",duration of sleep after sodium thiopental,male outbred mice; [11],76.4 ± 16.7 min
same,latent time of sleep after sodium thiopental,male outbred mice; [11],1.86 ± 0.27 s
same,duration of sleep after sodium thiopental,male outbred mice; [12],54.5 ± 9.9 min
same,latent time of sleep after sodium thiopental,male outbred mice; [12],1.94 ± 0.18 s
same,duration of sleep after sodium thiopental,male outbred mice; [13],67.9 ± 4.3 min
same,latent time of sleep after sodium thiopental,male outbred mice; [13],2.78 ± 0.17 s
same,duration of sleep after sodium thiopental,male outbred mice; [14],71.7 ± 14.6 min
same,latent time of sleep after sodium thiopental,male outbred mice; [14],2.21 ± 0.17 s
same,duration of sleep after sodium thiopental,male outbred mice; [15],92.4 ± 9.9 min
same,latent time of sleep after sodium thiopental,male outbred mice; [15],2.28 ± 0.24 s
same,number of punished lickings (shocks received in 5-min session),outbred male rats; 1.0 mg/kg i.p.,15.3 ± 3.4
same,number of punished lickings (shocks received in 5-min session),outbred male rats; 5.0 mg/kg i.p.,19.0 ± 2.5
same,number of punished lickings (shocks received in 5-min session),outbred male rats; 10.0 mg/kg i.p.,15.4 ± 2.5
same,number of punished lickings (shocks received in 5-min session),outbred male rats; 20.0 mg/kg i.p.,28.0 ± 5.8
